Laboratory results from patent publication US20250290057A1, “LYTIC AGENT FOR ENTEROCOCCUS FAECALIS” (priority 2022, published 2025).
≈ marks a conversion by molar mass, not a printed value.

Experiments:
E. faecalis isolates = test: Minimal inhibitory concentration of antibacterial agents, "Eiken" DP42 dry plate; format: cell-based, Enterococcus faecalis; settings: for MIC: Enterococcus faecalis, read-out: Minimal inhibitory concentration; for Sensitivity of strains to antibacterial agent: all E. faecalis strains (11 strains)
Description: (§1) The sensitivity to an antibacterial agent for each of the above-described 30 Enterococcus bacterial strains was invenstigated. Specifically, the bacterial strains prepared in 1 McFarland standard with physiological saline were diluted 500-fold with a BHI culture medium, and then aerobically cultured in solid-phase wells of an “Eiken” DP42 dry plate (Eiken Chemical Co., Ltd., Tokyo, Japan) for 24 hours.
(§2) The minimal inhibitory concentration of any one of the antibacterial agents, i.e., daptomycin (DAP), vancomycin (VCM), teicoplanin (TEIC), and linezolid (LZD), was determined in accordance with the instruction of the product. […] The results obtained by testing resistance to the antibacterial agents of the E. faecalis strains (11 strains) are shown in Table 1 below.

E. faecium isolates = test: as above; format: cell-based, Enterococcus faecium; settings: all E. faecium (19 strains)
Description: as §1, §2

[1] = test system: E. faecalis isolate OCU031_14_8; test: Lytic activity by turbidity (OD600) of cell resuspension liquid; format: cell-based, Enterococcus faecalis; settings: final concentration of 50 μg/mL
Description: The E. faecalis isolate OCU031_14_8 was aerobically cultured in a BHI culture medium, and centrifuged at 3,000×g for 15 minutes for collection. The cell pellets were washed, and resuspended in a HiTrap buffer. The phage-derived endolysin was added at a final concentration of 50 μg/mL to the cell resuspension liquid. The turbidity (OD600) was measured with a TVS062CA BioPhoto recorder (ADVANTEC Co., Ltd., Tokyo, Japan) every 1 minute to measure the lytic activity.

[2] = test system: biofilms of 11 E. faecalis isolates; test: Biofilm assay using crystal-violet staining; format: cell-based, Enterococcus faecalis; settings: final concentration of 50 μg/mL, incubated overnight; all 11 E. faecalis strains
Description: A biofilm assay was performed, using crystal-violet staining, in accordance with a method described in the past literature (Yang, Y., et al., J Appl Oral Sci., 2018, 26: e20170566; Shao, C., et al., J Proteome res., 2012, 11 (9): 4465-75; He Z., et al., Int J Antimicrob Agents., 2012, 40 (1): 30-5). This assay is a method in which a crystal violet pigment is adsorbed into a bacteria-derived biofilm (comprising an extracellular matrix and the like), and then, ethanol is added to the resulting biofilm to elute the crystal violet pigment, the absorbance of which is measured to quantify the amount of the pigment.
Specifically, each of the 11 species of E. faecalis isolates was cultured at 37° C. overnight in a BHI culture medium supplemented with aztreonam (20 μg/mL), polymyxinB (20 μg/mL), and amphotericinB (4 μg/mL). Then, the isolate was diluted 100-fold with a new BHI culture medium, inoculated into a 96-well flat-bottomed polystyrene microtiter plate (Corning, Inc., Arizona, USA, 353072), and aerobically cultured further at 37° C. for 24 hours. Then, the 96-well plate was washed once with 200 μL of a HiTrap buffer, and 200 μL of phage-derived endolysin or a vehicle (SUMO protein having a His tag added thereto) was added (at a final concentration of 50 μg/mL). […] The absorbance of the sample was measured at 570 nm. […]

[3] = test system: GVHD model mice to which E. faecalis OCU031_14_8 strain was administered; test: Administration to GVHD model mice to which E. faecalis was administered; format: in vivo
Description: All the animal experiments were performed with the approval of the Animal Care and Use Committee of Osaka Metropolitan University. Germ-free C57BL/6 female mice (H2k^b) and SPF 129SvJ/JmsSlc female mice (6 to 8 weeks old) were purchased from SLC Japan Inc. (Hamamatsu, Japan) and CLEA Japan, Inc. (Tokyo, Japan) respectively. The mice were reared under temperature control (23±2° C.) under dark-period conditions from 8 pm to 8 am, and allowed to freely take sterile water and standard solid food for laboratory mice. The germ-free C57BL/6 mice were reared, one individual in one cage.
Before the stem cell transplantation, a suspension of E. faecalis OCU031_14_8 strain was orally administered to the germ-free C57BL/6 female mice. The suspension used was a suspension in which a 2.0×10^8 colony forming unit (cfu) was suspended in 200 μL of sterile PBS. […]
The survival rate after Day 0 was monitored every day. All the survival periods of the groups were statistically analyzed and compared using a generalized Wilcoxon test. […] The number of colonies formed was measured to quantify the amount of E. faecalis bacteria in the feces. […]

[4] = test system: GVHD model mice in which patient feces (OCU031_14) with Enterococcus dominance was transplanted; test: Administration to GVHD model mice in which fecal sample was transplanted; format: in vivo; settings: 200 μg orally three times a week
Description: All the animal experiments were performed with the approval of the Animal Care and Use Committee of Osaka Metropolitan University. […] The survival rate after Day 0 was monitored every day, and the composition of the enteric microbes on each of Day 0 and Day 8 was analyzed by 16S rRNA gene sequencing.

[5] = test system: E. faecalis strains JCM5803, JCM8902; test: Lytic activity using presence or absence of a bacterial lump as an index; format: cell-based; design: key to Lysis by endolysin: lyzed: +; not lyzed: −; settings: 50 μg/mL; for Lysis by endolysin: 37° C.
Description: (§3) The hemolytic activity of each of the bacterial strains was measured with a hemolysis assay using a Nissui Plate Horse Blood Agar medium. The cytolysin-related gene was detected with PCR. The vancomycin resistance was evaluated using the method described in (2) in Example 2. The vanA gene and the vanB gene that are vancomycin-resistant genes were detected with PCR. Furthermore, each bacterial strain was aerobically cultured in a BHI culture medium, and centrifuged at 300×g for 5 minutes for collection. The cell pellets were washed, and resuspended in a HiTrap buffer. The phage-derived endolysin was added at a final concentration of 50 μg/mL to the cell resuspension liquid. The resulting suspension was incubated at 37° C., and the lytic activity was measured, using the presence or absence of a bacterial lump as an index.

[6] = test system: E. faecium strain JCM5804; test: as above; format: cell-based; design: key to Lysis by endolysin: lyzed: +; not lyzed: −; settings: 50 μg/mL
Description: as §3

[7] = E. faecalis strain OCU009_35_10
[8] = E. faecalis strain OCU031_pre_6
[9] = E. faecalis strain OCU031_pre_7
[10] = E. faecalis strain OCU031_pre_10

Q: How did the Minimal inhibitory concentration (E. faecalis isolates; E. faecalis strain OCU009_35_4) turn out when `CCCCCCCCCC(=O)N[C@@H](Cc1c[nH]c2ccccc12)C(=O)N[C@H](CC(N)=O)C(=O)N[C@@H](CC(=O)O)C(=O)N[C@@H]1C(=O)NCC(=O)N[C@@H](CCCN)C(=O)N[C@@H](CC(=O)O)C(=O)N[C@H](C)C(=O)N[C@@H](CC(=O)O)C(=O)NCC(=O)N[C@H](CO)C(=O)N[C@@H]([C@H](C)CC(=O)O)C(=O)N[C@@H](CC(=O)c2ccccc2N)C(=O)O[C@@H]1C` [daptomycin] was run?
A: >4 µg/mL

Q: And the Minimal inhibitory concentration (E. faecalis isolates; [7])?
A: >4 µg/mL

Q: What about the Minimal inhibitory concentration (E. faecalis isolates; E. faecalis strain OCU015_56_6) of the same molecule?
A: >4 µg/mL

Q: What about the Minimal inhibitory concentration (E. faecalis isolates; E. faecalis strain OCU031_7_1) of the same molecule?
A: >4 µg/mL

Q: What about the Minimal inhibitory concentration (E. faecalis isolates; E. faecalis strain OCU031_7_9) of the same molecule?
A: >4 µg/mL

Q: And the Minimal inhibitory concentration (E. faecalis isolates; E. faecalis strain OCU031_14_5)?
A: >4 µg/mL

Q: And the Minimal inhibitory concentration (E. faecalis isolates; E. faecalis strain OCU031_14_8)?
A: >4 µg/mL

Q: And the Minimal inhibitory concentration (E. faecalis isolates; [8])?
A: >4 µg/mL

Q: What about the Minimal inhibitory concentration (E. faecalis isolates; [9]) of the same molecule?
A: >4 µg/mL

Q: What about the Minimal inhibitory concentration (E. faecalis isolates; [10]) of the same molecule?
A: >4 µg/mL

Q: And the MIC (E. faecalis isolates; E. faecalis strain OCU015_56_7)?
A: > 4 µg/mL

Q: And the “Sensitivity of strains to antibacterial agent” value (shortened to “Sensitivity of strains”) (E. faecalis isolates)?
A: exhibited sensitivity

Q: What about the “Sensitivity of strains” value (E. faecium isolates) of the same molecule?
A: exhibited sensitivity

Q: For `CC(=O)NC[C@H]1CN(c2ccc(N3CCOCC3)c(F)c2)C(=O)O1` [linezolid], which Minimal inhibitory concentration (E. faecalis isolates; E. faecalis strain OCU009_35_4) is on record?
A: 2 µg/mL (≈ 5.93 µM)

Q: What about the Minimal inhibitory concentration (E. faecalis isolates; [7]) of the same molecule?
A: 2 µg/mL (≈ 5.93 µM)

Q: What about the Minimal inhibitory concentration (E. faecalis isolates; E. faecalis strain OCU015_56_6) of the same molecule?
A: 2 µg/mL (≈ 5.93 µM)

Q: And the Minimal inhibitory concentration (E. faecalis isolates; E. faecalis strain OCU031_7_1)?
A: 2 µg/mL (≈ 5.93 µM)

Q: What about the Minimal inhibitory concentration (E. faecalis isolates; E. faecalis strain OCU031_7_9) of the same molecule?
A: 2 µg/mL (≈ 5.93 µM)

Q: What about the Minimal inhibitory concentration (E. faecalis isolates; E. faecalis strain OCU031_14_5) of the same molecule?
A: 2 µg/mL (≈ 5.93 µM)

Q: What about the Minimal inhibitory concentration (E. faecalis isolates; E. faecalis strain OCU031_14_8) of the same molecule?
A: 2 µg/mL (≈ 5.93 µM)

Q: What about the Minimal inhibitory concentration (E. faecalis isolates; [8]) of the same molecule?
A: 2 µg/mL (≈ 5.93 µM)

Q: And the Minimal inhibitory concentration (E. faecalis isolates; [9])?
A: 2 µg/mL (≈ 5.93 µM)

Q: What about the Minimal inhibitory concentration (E. faecalis isolates; [10]) of the same molecule?
A: 2 µg/mL (≈ 5.93 µM)

Q: What about the MIC (E. faecalis isolates; E. faecalis strain OCU015_56_7) of the same molecule?
A: 2 µg/mL (≈ 5.93 µM)

Q: What about the “Sensitivity of strains” value (E. faecalis isolates) of the same molecule?
A: exhibited sensitivity

Q: What about the “Sensitivity of strains” value (E. faecium isolates) of the same molecule?
A: exhibited sensitivity

Q: For teicoplanin, which Minimal inhibitory concentration (E. faecalis isolates; E. faecalis strain OCU009_35_4) is on record?
A: 1 µg/mL

Q: What about the Minimal inhibitory concentration (E. faecalis isolates; [7]) of the same molecule?
A: 2 µg/mL

Q: And the Minimal inhibitory concentration (E. faecalis isolates; E. faecalis strain OCU015_56_6)?
A: 0.5 µg/mL

Q: What about the Minimal inhibitory concentration (E. faecalis isolates; E. faecalis strain OCU015_56_7) of the same molecule?
A: 0.5 µg/mL

Q: What about the Minimal inhibitory concentration (E. faecalis isolates; E. faecalis strain OCU031_7_1) of the same molecule?
A: 2 µg/mL

Q: And the Minimal inhibitory concentration (E. faecalis isolates; E. faecalis strain OCU031_7_9)?
A: 2 µg/mL

Q: What about the Minimal inhibitory concentration (E. faecalis isolates; E. faecalis strain OCU031_14_5) of the same molecule?
A: 1 µg/mL

Q: What about the Minimal inhibitory concentration (E. faecalis isolates; E. faecalis strain OCU031_14_8) of the same molecule?
A: 1 µg/mL

Q: What about the Minimal inhibitory concentration (E. faecalis isolates; [8]) of the same molecule?
A: 1 µg/mL

Q: What about the Minimal inhibitory concentration (E. faecalis isolates; [9]) of the same molecule?
A: 1 µg/mL

Q: And the Minimal inhibitory concentration (E. faecalis isolates; [10])?
A: 1 µg/mL

Q: What about the “Sensitivity of strains” value (E. faecalis isolates) of the same molecule?
A: exhibited sensitivity

Q: And the “Sensitivity of strains” value (E. faecium isolates)?
A: exhibited sensitivity

B1: phage-derived endolysin: endolysin of SEQ ID NO: 1 found in prophage sequences of 11 E. faecalis isolates; produced from a His-SUMO-labeled expression vector (protein)
chain: MTLNGIDISSWQSNINVGKEGVSADFVIIKATGGTGYINPDCDRAFQQAISSGKKVAVYHFANEVGLEGTAEQEAEFFLKNIKGYIGKAVLVLDWESTNKGDVPWAKRWLDYVQSKTGVKPMFYTYTNVLQSYNFSSIAKADYGLWLADYGANNPQGYSQPTPPSVPYWNFISMYQYTSNGQLPGWNGRLDLNVFFGDRNMWDKYANPKSNPTPAPPVPPKPKRRYGYRVDDLQFVNGIWQVRNDVLGQPDFDWTENGINVAYIDKINPATGENTPDQELKVGDYFAFQPSSVGIITEQYSLNGKTISHVQFPDEFIWLYTESVEKLIYG
modifications: His-SUMO tag; Enterococcus faecalis-derived prophage
notes: produced from a His-SUMO-labeled expression vector
Q: How did the “Lytic activity (OD600 turbidity)” value [1] turn out when B1 was run?
A: lysed

Q: And the “Lysis of biofilm (crystal violet, absorbance at 570 nm)” value [2]?
A: lysed

Q: What about the “Amount of the E. faecalis bacteria in the feces” value ([3]; 200 μg orally three times a week (10 mg/kg/day) from Day 0 until the third week) of the same molecule?
A: noticeable decrease

Q: And the Survival rate ([3]; 25 days after the stem cell transplantation, 200 μg orally three times a week)?
A: 100%

Q: And the “Ratio of Enterococcus bacteria present in the enteric microbes” value ([4]; 8 days after the stem cell transplantation, 16S rRNA gene sequencing)?
A: decreased significantly

Q: What about the Survival rate ([4]; 30 days after the stem cell transplantation) of the same molecule?
A: 100%

Q: And the “Lytic activity” value ([5]; JCM8902 strain, vancomycin-resistant and cytolysin-positive E. faecalis isolate)?
A: exhibited a lytic activity

Q: What about the Lysis by endolysin ([5]; strain JCM5803) of the same molecule?
A: +

Q: And the Lysis by endolysin ([5]; strain JCM8902 (vancomycin-resistant, cytolysin-positive))?
A: +

Q: What about the “Lytic activity” value ([6]; JCM5804 strain, E. faecium isolate) of the same molecule?
A: did not exhibit a lytic activity

Q: What about the Lysis by endolysin ([6]; strain JCM5804, 37° C.) of the same molecule?
A: −
